Assay results reported in patent US11713293B2, “Substituted biaryl sulfonamides and the use thereof” (NovoMedix, LLC, priority 2012, dated 2023).

How the values were obtained:
[1] = test system: triple negative breast cancer cell line MDA-MB-468; test: Cell-based IC50 assay, adherent cells, MDA-MB-468; settings: Homo sapiens, 72 hours, CellTiter 96 Aqueous One, metabolically active cells decreased by 50%
Procedure: (§1) In one embodiment, the IC50s of the compounds provided herein were determined in cell-based assays using adherent cells. In one embodiment, the activity of the compounds provided herein were determined in a cell-based assay using the triple negative breast cancer cell line MDA-MB-468. In one embodiment, the activity of the compounds provided herein were determined in a cell-based assay using the triple negative breast cancer cell line MDA-MB-231. In one embodiment, the activity of the compounds provided herein were determined in a cell-based assay using the triple negative breast cancer cell line 4T1.
(§2) In one embodiment, the cell-based assay may be carried out as provided herein. On day 0, cells were seeded at 20,000 cells per well in 100 μL of media into individual wells of a 96-well tissue culture plate. The next day, compounds were diluted to twice the desired final concentration and added in 100 μL of media for a final volume of 200 μL. Standard solutions for each compound were prepared at 1000× concentration in DMSO. The highest concentration was […]. Serial 1:1 dilutions were made from there for a 6- or 9-point curve (e.g., 20 mM, 10 mM, 5 mM, etc). Compounds were then diluted 1:500 in media, and 100 μL of the resulting solution was added to each well for a final dilution of 1:1000. Each concentration of compound was tested in triplicate. Cells were incubated at 37° C. with 5% CO2. After 72 hours, 20 μL of CellTiter 96 Aqueous One Solution Cell Proliferation Assay (Promega) was added to each well. Cells were placed back in the incubator, and the absorbance at 490 nm was read after 2-3 hours. The concentration of compound that decreased the number of metabolically active cells by 50% was determined and reported as the IC50. “Percent Viability” was determined by subtracting the average background value (media only) and expressed as a ratio to the average value obtained from cells treated with only DMSO.
The IC50s of the compounds provided herein and some reference compounds were determined in cell-based assay using triple negative breast cancer cell line MDA-MB-468.

[2] = PK study and oral bioavailability, rat; format: in vivo; settings: plasma 0 to 6 h
[3] = test system: triple negative breast cancer cell line MDA-MB-231; test: Cell-based IC50 assay, adherent cells, MDA-MB-231; settings: Homo sapiens, 72 hours, CellTiter 96 Aqueous One
Procedure: as §1, §2

[4] = PK study and oral bioavailability, mouse; format: in vivo; settings: plasma 0 to 6 h
[5] = test system: triple negative breast cancer cell line 4T1; test: Cell-based IC50 assay, adherent cells, 4T1; settings: 72 hours, CellTiter 96 Aqueous One
Procedure: as §1
In one embodiment, the cell-based assay may be carried out as provided herein. On day 0, cells were seeded at 20,000 cells per well in 100 μL of media into individual wells of a 96-well tissue culture plate. The next day, compounds were diluted to twice the desired final concentration and added in 100 μL of media for a final volume of 200 μL. Standard solutions for each compound were prepared at 1000× concentration in DMSO. The highest concentration was 30 mM. […] Cells were placed back in the incubator, and the absorbance at 490 nm was read after 2-3 hours. […] “Percent Viability” was determined by subtracting the average background value (media only) and expressed as a ratio to the average value obtained from cells treated with only DMSO.

[6] = test system: m7GpppN-capped luciferase mRNA reporter; test: In vitro HeLa cell extract translation system, translation inhibition; format: biochemical; settings: concentration not given
Procedure: In one embodiment, the compounds provided herein were assayed for translation inhibition activity using an in vitro HeLa cell extract translation system with an m7GpppN-capped luciferase mRNA reporter.

[7] = IV 5 mg/kg, read-out: IV Administration (5 mg/kg) C0
[8] = IV 5 mg/kg, read-out: IV Administration (5 mg/kg) T½ (converted)
[9] = PO 25 mg/kg, read-out: PO Administration (25 mg/kg) C0

Compound | IC50 [1] [µM] | further results
O=S(=O)(Nc1cc(C(F)(F)F)cc(C(F)(F)F)c1)c1cc(C(F)(F)F)cc(C(F)(F)F)c1 [Reference compound 1] | > 20 | –
Cc1cc(C(C)(C)C)cc(C)c1S(=O)(=O)Nc1cc(C(F)(F)F)cc(C(F)(F)F)c1 [Compound 6, N-[3,5-Bis(trifluoromethyl)phenyl]-4-tert-butyl-2,6-dimethyl-benzenesulfonamide] | 7 | –
CCc1cccc(CC)c1S(=O)(=O)Nc1cc(C(F)(F)F)cc(C(F)(F)F)c1 [Compound 8, N-[3,5-Bis(trifluoromethyl)phenyl]-2,6-diethyl-benzenesulfonamide] | 1.5 | –
CC(C)c1cc(C(C)C)c(NS(=O)(=O)c2cc(C(F)(F)F)cc(C(F)(F)F)c2)c(C(C)C)c1 [Compound 4, 3,5-Bis(trifluoromethyl)-N-(2,4,6-triisopropylphenyl)benzenesulfonamide] | 12 | –
Cc1cc(C(C)(C)C)cc(C)c1S(=O)(=O)Nc1cc(C(F)(F)F)cc(C(F)(F)F)c1Cl [Compound 10, 4-Tert-butyl-N-[2-chloro-3,5-bis(trifluoromethyl)phenyl]-2,6-dimethyl-benzenesulfonamide] | 3 | –
CC(C)c1cc(C(C)C)c(S(=O)(=O)Nc2cc(C(F)(F)F)cc(C(F)(F)F)c2Br)c(C(C)C)c1 [Compound 5, N-[2-Bromo-3,5-bis(trifluoromethyl)phenyl]-2,4,6-triisopropyl-benzenesulfonamide] | 5 | –
Cc1c(NS(=O)(=O)c2c(C(C)C)cc(C(C)C)cc2C(C)C)cc(C(F)(F)F)cc1C(F)(F)F [Compound 2, N-[2-Methyl-3,5-bis(trifluoromethyl)phenyl]-2,4,6-triisopropyl-benzenesulfonamide] | 2 | C0 [2, 7]: 68900 ng/mL; half-life [2, 8]: 1.6 h; C0 [2, 9]: 27600 ng/mL; half-life ([2]; PO 25 mg/kg, read-out: PO Administration (25 mg/kg) T½): > 6 h; IC50 [3]: 6 µM; C0 [4, 7]: 53700 ng/mL; half-life [4, 8]: 2.9 h; C0 [4, 9]: 3610 ng/mL; half-life ([4]; PO 25 mg/kg, read-out: PO Administration (25 mg/kg) T½ (converted)): 2.4 h; IC50 [5]: 5 µM
CC(C)c1cc(C(C)C)c(S(=O)(=O)Nc2cc(C(F)(F)F)cc(C(F)(F)F)c2Cl)c(C(C)C)c1 [Compound 3, N-[2-Chloro-3,5-bis(trifluoromethyl)phenyl]-2,4,6-triisopropyl-benzenesulfonamide] | 4.5 | IC50 [3]: 3 µM
Cc1cc(C(C)(C)C)cc(C)c1S(=O)(=O)Nc1cc(C(F)(F)F)cc(C(F)(F)F)c1C [Compound 9, 4-Tert-butyl-2,6-dimethyl-N-[2-methyl-3,5-bis(trifluoromethyl)phenyl]benzenesulfonamide] | 5 | –
N#Cc1ccc(NS(=O)(=O)c2cc(C(F)(F)F)cc(C(F)(F)F)c2)cc1Cl [Reference compound 3] | > 20 | –
CCc1cccc(CC)c1S(=O)(=O)Nc1cc(C(F)(F)F)cc(C(F)(F)F)c1C [Compound 7, 2,6-Diethyl-N-[2-methyl-3,5-bis(trifluoromethyl)phenyl]benzenesulfonamide] | 2 | –
C[C@@H]1C[C@@H]([C@H](O)CC2CC(=O)NC(=O)C2)C(=O)[C@@H](C)C1 [cycloheximide, reference compound] | – | inhibition of luciferase activity (comparator) [6]: 99.3%

The next lines start with results.

IC50 [1] [µM] | Compound | further results
19 | Cc1c(Cl)cccc1NS(=O)(=O)c1c(C(C)C)cc(C(C)C)cc1C(C)C [Reference compound 12] | –
> 20 | COc1ccc(OC)c(S(=O)(=O)Nc2cc(C(F)(F)F)cc(C(F)(F)F)c2)c1 [Reference compound 6] | –
10 | O=S(=O)(Nc1cc(C(F)(F)F)cc(C(F)(F)F)c1)c1c(Cl)cccc1Cl [Reference compound 2] | –
> 20 | CC(C)c1cc(C(C)C)c(S(=O)(=O)Nc2ccccc2F)c(C(C)C)c1 [Reference compound 11] | –
> 20 | Cc1ccc(C)c(NS(=O)(=O)c2c(C(C)C)cc(C(C)C)cc2C(C)C)c1 [Reference compound 8] | –
> 20 | CC(=O)Nc1ccc(S(=O)(=O)Nc2cc(C(F)(F)F)cc(C(F)(F)F)c2)cc1 [Reference compound 13] | –
> 20 | CC(C)c1cc(C(C)C)c(S(=O)(=O)Nc2cccc(F)c2)c(C(C)C)c1 [Reference compound 9] | –
> 20 | Cc1c(C)c(C)c(S(=O)(=O)Nc2cc(C(F)(F)F)cc(C(F)(F)F)c2)c(C)c1C [Reference compound 5] | –
17 | Cc1cc(C)c(S(=O)(=O)Nc2cc(C(F)(F)F)cc(C(F)(F)F)c2)c(C)c1 [Reference compound 4] | –
14 | CC(C)c1cc(C(C)C)c(S(=O)(=O)Nc2ccc(Br)cc2)c(C(C)C)c1 [Reference compound 7] | –
> 20 | Cc1cc(C)c(NS(=O)(=O)c2c(C(C)C)cc(C(C)C)cc2C(C)C)c(C)c1 [Reference compound 10] | –
